Results published in PubChem BioAssay AID1918930 (Molecular Pharmacology Branch, DTP, NCI, 2023).
“And” between values parts separate entries of the source, which are not always exact repeats. Identical values can stand only once.

System: 233499-124-R-J3-PDC complex spheroid viability, % test/control
Test: Anticancer human tumor 233499-124-R-J3-PDC patient-derived colon adenocarcinoma cell line growth inhibition
Settings: for viability, T/C: stronger effect = lower value
From the text: Multicellular complex tumor spheroid response to LSD1 Inhibitor Iadademstat in combination with a variety of drugs and investigational agents in selected tumor cell lines
The current study was undertaken to assess response to LSD1 inhibitors in combination with standard-of-care drugs and investigational agents in solid tumor complex spheroid models as well as in the K-562 leukemia. Complex spheroids include a stromal component modeled by human endothelial cells (HUVEC) and fibroblasts modeled by human mesenchymal stem cells (MSCs). The concentration ranges selected for each drug and investigational agent were based upon clinically achievable concentrations if the clinical Cmax of the agent was known.
Compounds. The drugs and investigational agents used in this study are listed on Table 1. All of the agents used, including staurosporine (NSC755774) and gemcitabine (NSC613327), were obtained from the Developmental Therapeutics Program, NCI. FDA-approved anticancer drugs are available from the NCI at http://dtp.nci.nih.gov/branches/dscb/oncology_drugset_explanation.html. Drugs and investigational agents were >95% pure by proton nuclear magnetic resonance (NMR) and liquid chromatography/mass spectrometry (LC/MS). Stock solutions were prepared at 400x in DMSO, stored at -70 degrees C, and diluted in fresh medium prior to their use. The final concentration of DMSO in cell culture wells never exceeded 0.25% (v/v). The FDA-approved anticancer drug set is available from the Developmental Therapeutics Program at https://dtp.cancer.gov/organization/dscb/obtaining/available_plates.htm. All drugs and investigational agents were tested over a range starting from a high concentration at or near the clinical Cmax and decreasing in half-log increments. If the clinical Cmax for an agent had not been determined, the highest concentration tested was 10 microM.
Cell Lines. The patient-derived cancer cell (PDC) lines: 292921-168-R-J2-PDC, K24384-001-R-PDC, and 521955-158-R2-J5-PDC pancreatic carcinomas, 556581-035-R-J1 ovarian carcinoma, 324938-238-R-J1-PDC, 855422-203-R-J1-PDC and 883617-216-R-J1-PDC urothelial bladder carcinomas, 743489-274-T-PDC renal cell carcinoma, 138582-R-J1 Merkel cell tumor, K60290-347-R-J1 and K57222-313-R-J1-PDC glioblastomas, 653999-131-R-J2-PDC, LG0703-F948-PDC, and 349418-098-R-PDC non-small cell lung carcinomas, 885512-296-R-J2-PDC, 171881-019-R-J1-PDC breast carcinomas and 186277-243-T-J2-PDC and 233499-124-R-J2-PDC colon carcinomas were obtained from the NCI Patient-Derived Models Repository (PDMR, https://pdmr.cancer.gov). The established cell lines NCI/ADR-RES (RRID:CVCL_14520 and OVCAR-5 (RRID:CVCL_1628) ovarian carcinomas, 786-O (RRID:CVCL_1051) and A498 (RRID:CVCL_A498) renal cell carcinoma, NCI-H211 (ATCC, cat. CRL-5824; RRID:CVCL_1529), NCI-H196 (ATCC, cat. CRL-5823, RRID:CVCL_1509), SW 1271 (ATCC, cat. CRL-2177, RRID:CVCL_1716) and NCI-H1876 (ATCC, cat. CRL-5902, RRID:CVCL_1503) small cell lung carcinomas, MDA-MB-231 (RRID:CVCL_0062) and MDA-MB-468 (RRID:CVCL_0419)breast carcinomas (10-12). Pooled donor human umbilical vein endothelial cells (HUVEC, Lonza, cat. CC-2519) and human mesenchymal stem cells (hMSC, Lonza, cat. PT-2501) were purchased from Lonza (Walkersville, MD).
Cell Culture. All cells were maintained in an incubator at 37 degrees C and 5% CO2 with 95% humidity. The PDC lines were cultured according to standard operating procedures established by the NCI PDMR (https://pdmr.cancer.gov). Briefly all PDCs were thawed and cultured in Matrigel-coated flasks prepared with a working solution of 1X Ham's F-12 nutrient mix, without supplementation (Invitrogen, Waltham, MA, cat. 11765054), 100 U/mL penicillin-streptomycin (Invitrogen, cat. 15140122), and 2.5% Matrigel (Corning Inc., Corning, NY, cat. 354248) for the first three passages. […]
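Further: spheroids exposed to agents for one week before readout.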

| Structure (SMILES) | viability, T/C (compound 0.00316 µM) | viability, T/C (compound 0.01 µM) | viability, T/C (compound 0.0316 µM) | viability, T/C (compound 0.1 µM) | IC50 (curve of compound) | viability, T/C (compound 0.316 µM) | viability, T/C (compound 1 µM) | viability, T/C (compound 0.00949 µM) | viability, T/C (compound 0.03 µM) | viability, T/C (compound 0.0949 µM) | viability, T/C (compound 0.3 µM) | other results |
| --- | --- | --- | --- | --- | --- | --- | --- | --- | --- | --- | --- | --- |
| CC(C)CC(NC(=O)C(Cc1ccccc1)NC(=O)c1cnccn1)B(O)O (stereo unspecified) | 21.4% and 0.26% | 7.18% and 0.25% | 5.21% and 0.25% | 3.6% and 0.35% | 2.07 nM and 0.496 nM |  |  |  |  |  |  | viability, T/C (compound 0.000316 µM): 96% and 81.8% |
| CC(C)CC(NC(=O)CNC(=O)c1cc(Cl)ccc1Cl)B1OC(=O)CC(CC(=O)O)(C(=O)O)O1 (stereo unspecified) | 102% and 78.5% | 9.9% and 4.05% | 7.32% and 0.21% | 5.06% and 0.23% | 5.78 nM and 4.92 nM |  |  |  |  |  |  | viability, T/C (compound 0.000316 µM): 90.6% and 106%; viability, T/C (compound 0.001 µM): 89.8% and 95.7% |
| CC(C)c1c(-c2ccccc2)nc2c(C#N)c[nH]n2c1=O |  |  | 90.9% and 92.4% | 103% and 96.3% | > 10000 nM | 92.6% and 89.1% | 95% and 106% |  |  |  |  | viability, T/C (compound 3.16 µM): 105% and 102%; viability, T/C (compound 10 µM): 96.2% and 115% |
| CC1(C)CCC(CN2CCN(c3ccc(C(=O)NS(=O)(=O)c4ccc(NCC5CCOCC5)c([N+](=O)[O-])c4)c(Oc4cnc5[nH]ccc5c4)c3)CC2)=C(c2ccc(Cl)cc2)C1 |  |  | 96.6% and 90.8% | 93.2% and 96.6% | > 10000 nM and 2590 nM | 118% and 99.7% | 112% and 93.5% |  |  |  |  | viability, T/C (compound 3.16 µM): 120% and 40.8% |
| CC1COCCN1c1cc(-c2ccnn2C)c2ccnc(-c3ccn[nH]3)c2n1 (stereo unspecified) | 91.4% and 59.2% | 93.3% and 48.8% | 61.6% and 40.6% | 34.6% and 38.1% |  | 16.5% and 47.6% | 31.2% and 97.3% |  |  |  |  |  |
| CC1COCCN1c1cc(C2(S(C)(=N)=O)CC2)nc(-c2ccnc3[nH]ccc23)n1 (stereo unspecified) |  |  | 86% and 97.4% | 92.5% and 98.9% | > 10000 nM | 75.2% and 90.7% | 65.8% and 86.7% |  |  |  |  | viability, T/C (compound 3.16 µM): 49.3% and 53.9%; viability, T/C (compound 10 µM): 63.4% and 54.3% |
| CCN(c1cc(-c2ccc(CN3CCOCC3)cc2)cc(C(=O)NCc2c(C)cc(C)[nH]c2=O)c1C)C1CCOCC1 |  |  |  |  | > 3000 nM |  |  | 81.1% and 101% | 86.2% and 103% | 101% and 96% | 103% and 97.8% | viability, T/C (compound 0.949 µM): 110% and 83.4%; viability, T/C (compound 3 µM): 99.1% and 52.7% |
| CC[C@@]1(O)C(=O)OCc2c1cc1n(c2=O)Cc2cc3c(CN(C)C)c(O)ccc3nc2-1 | 63.5% and 72.9% | 51.6% and 62.8% | 70% and 69.2% | 94.3% and 109% | > 100 nM |  |  |  |  |  |  | viability, T/C (compound 0.000316 µM): 79.7% and 94.3%; viability, T/C (compound 0.001 µM): 70% and 85.8% |
| CCc1c2c(nc3ccc(O)cc13)-c1cc3c(c(=O)n1C2)COC(=O)[C@]3(O)CC |  |  |  |  | 28.4 nM and 21.8 nM |  |  | 101% and 94% | 47.5% and 33.5% | 16.6% and 32.4% | 26.7% and 28.5% | viability, T/C (compound 0.000949 µM): 91.8% and 92.6%; viability, T/C (compound 0.003 µM): 106% and 117% |
| COc1cc(C2c3cc4c(cc3C(OC3OC5COC(C)OC5C(O)C3O)C3COC(=O)C23)OCO4)cc(OC)c1O (stereo unspecified) |  |  |  |  | > 3000 nM |  |  | 90.2% and 92.1% | 91.5% and 80.9% | 97.4% and 88.9% | 89% and 59.5% | viability, T/C (compound 0.949 µM): 65.2% and 53.7%; viability, T/C (compound 3 µM): 59% and 47.7% |
| COc1cc(Nc2ncc3c(n2)-c2ccc(Cl)cc2C(c2c(F)cccc2OC)=NC3)ccc1C(=O)O | 43.2% | 61% | 55.2% | 63.2% | < 3.16 nM | 63.9% | 84.3% |  |  |  |  |  |
| COc1ccc([C@@H](O)c2cc(-c3ncnc4cc(N5CCOCC5)ccc34)c(F)cc2Cl)nn1 |  |  | 81.5% and 87.1% | 76.2% and 85.3% | 4170 nM and 5860 nM | 77% and 72.1% | 82.3% and 74.6% |  |  |  |  | viability, T/C (compound 3.16 µM): 61.9% and 68.9%; viability, T/C (compound 10 µM): 12.8% and 35.8% |
| Cn1ncnc1C1c2n[nH]c(=O)c3cc(F)cc(c23)NC1c1ccc(F)cc1 (stereo unspecified) | 91.4% and 98% | 77.6% and 88.7% | 77.7% and 85.1% | 93.4% and 82.7% | > 100 nM |  |  |  |  |  |  | viability, T/C (compound 0.000316 µM): 105% and 92.2%; viability, T/C (compound 0.001 µM): 95.1% and 80.9% |
| NC1CC1c1ccc(-c2cccc(O)c2)cc1 (stereo unspecified) |  |  |  | 91.3% and 107% |  |  |  |  |  |  |  | IC50 (compound alone, run of 02/01/2022): > 10000 nM |
| NC1CCC(NC2CC2c2ccccc2)CC1 (stereo unspecified) |  |  |  |  |  |  |  |  |  |  |  | IC50 (compound alone, run of 01/24/2022): > 10000 nM |
| NS(=O)(=O)OCC1CC(n2ccc3c(NC4CCc5ccccc54)ncnc32)CC1O (stereo unspecified) |  |  |  |  | 44.9 nM and 49.1 nM |  |  | 106% and 87.5% | 58.4% and 62.6% | 35.3% and 33.8% | 12.7% and 6.06% | viability, T/C (compound 0.949 µM): 7.91% and 3.62%; viability, T/C (compound 3 µM): 6.79% and 2.48% |
| Nc1ccccc1NC(=O)c1ccc(CNC(=O)OCc2cccnc2)cc1 |  |  |  |  | 637 nM and 401 nM |  |  | 90.9% and 83.5% | 101% and 93.5% | 84.8% and 81% | 90% and 63.2% | viability, T/C (compound 0.949 µM): 28.9% and 12.3%; viability, T/C (compound 3 µM): 4.68% and 3.17% |
| Nc1ccn(C2OC(CO)C(O)C2(F)F)c(=O)n1 (stereo unspecified) |  |  |  |  |  |  |  | 40.4% and 80.5% | 26.6% and 68.5% | 31% and 48.6% | 54.3% and 46.2% | viability, T/C (compound 0.000949 µM): 69.7% and 82.2%; viability, T/C (compound 0.003 µM): 36.4% and 84.6% |
| Nc1ncn(C2CC(O)C(CO)O2)c(=O)n1 (stereo unspecified) | 81% and 90.1% | 88.7% and 101% | 83.8% and 87.1% | 89.8% and 79.8% | > 1000 nM | 106% and 94.6% | 104% and 77.4% |  |  |  |  |  |
| Nc1ncn(C2CC(O)C(CO)S2)c(=O)n1 (stereo unspecified) |  |  |  |  | 133 nM and 160 nM |  |  | 119% and 95.5% | 100% and 94% | 59.1% and 62.5% | 28.4% and 35% | viability, T/C (compound 0.000949 µM): 92.5% and 83.6%; viability, T/C (compound 0.003 µM): 96% and 87.5% |
| O=C(C=Cc1cccc(S(=O)(=O)Nc2ccccc2)c1)NO |  |  |  |  | 3000 nM and > 3000 nM |  |  | 93.1% and 104% | 116% and 98.3% | 128% and 104% | 141% and 98.9% | viability, T/C (compound 0.949 µM): 26.7% and 9.27%; viability, T/C (compound 3 µM): 96.4% and 90.1% |
| O=C(C=Cn1cnc(-c2cc(C(F)(F)F)cc(C(F)(F)F)c2)n1)NNc1cnccn1 | 102% and 76.2% | 106% and 79.7% | 98.9% and 61.4% | 54.3% and 71.6% | 192 nM and > 1000 nM | 46.3% and 88.5% | 11.6% and 62% |  |  |  |  |  |
| O=C(c1cc(Cc2n[nH]c(=O)c3ccccc23)ccc1F)N1CCN(C(=O)C2CC2)CC1 |  |  | 91.1% and 97.1% | 92.6% and 76.9% | > 10000 nM | 113% and 88.8% | 97.3% and 90.8% |  |  |  |  | viability, T/C (compound 3.16 µM): 76.1% and 75.5%; viability, T/C (compound 10 µM): 80.3% and 84.2% |
